A word on the IC50: it is the concentration that inhibits the measured activity by half.

For the assay, the system named is IFNα-induced pSTAT5 (pY694) in CD3 positive cells of human whole blood. Description: IFNα-Induced STAT Phosphorylation in Human Whole Blood. Format: cell-based. To be noted: Homo sapiens, 1 h compound incubation, 1000 U/mL recombinant human IFNα A/D for 15 min, pSTAT5 in CD3 positive population, read-out: Human WB IFNα-Induced Stat Phosph. (IC50). The method, boiled down: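 Read-out is median fluorescence intensity of pSTAT5 (pY694) in the CD3-positive gate, by flow cytometry after fix/lyse and permeabilization. Before that, whole human blood anticoagulated with EDTA or ACD-A received compound for an hour and 1000 U/mL IFNα A/D for 15 min.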
Consider `[2H]C([2H])([2H])NC(=O)c1nnc(NC(=O)C2CC2)cc1Nc1cccc(-c2noc(CN3CCNCC3)n2)c1OC` [Example 35], for which the IC50 came out at 120 nM. Under `[2H]C([2H])([2H])NC(=O)c1nnc(NC(=O)C2CC2)cc1Nc1cccc(-c2ncc(C(=O)N3CCN(S(=O)(=O)CC)CC3)s2)c1OC` [Example 242] stands 21 nM; under `[2H]C([2H])([2H])NC(=O)c1nnc(NC(=O)C2CC2)cc1Nc1cccc(-c2nc(CNC(=O)CN)no2)c1OC` [Example 155], 780 nM; under `[2H]C([2H])([2H])NC(=O)c1nnc(NC(=O)C2CC2)cc1Nc1cccc(-c2ncc(C(=O)NC(C)C)s2)c1OC` [Example 303], 100 nM. Consider `[2H]C([2H])([2H])NC(=O)c1nnc(NC(=O)C2CC2)cc1Nc1cccc(-c2ncc(N)s2)c1OC` [Example 282], for which the IC50 was 180 nM. Under `[2H]C([2H])([2H])NC(=O)c1nnc(NC(=O)C2CC2)cc1Nc1cccc(-c2nc([C@H](C)NC(=O)OC)no2)c1OC` [Example 182] stands 2010 nM. The figure for `[2H]C([2H])([2H])NC(=O)c1nnc(NC(=O)C2CC2)cc1Nc1cccc(-c2ncc(C(=O)N3CCC(N4CCCC4)CC3)s2)c1OC` [Example 350] is 40 nM. The figure for `[2H]C([2H])([2H])NC(=O)c1nnc(NC(=O)C2CC2)cc1Nc1cc(F)cc(-c2cc(C(=O)N(C)C(C)C)n(C)n2)c1OC` [Example 506] is 250 nM; for `[2H]C([2H])([2H])NC(=O)c1cnc(NC(=O)C2CC2)cc1Nc1cccc(-c2cnn(CCNC(=O)OC(C)(C)C)n2)c1OC` [Example 430] it is > 10000 nM. Take `[2H]C([2H])([2H])NC(=O)c1nnc(NC(=O)C2CC2)cc1Nc1cccc(-c2nc(CN3CCN(C(=O)C=C)CC3)no2)c1OC` [Example 129]: the 50% inhibitory concentration (IC50) worked out at 260 nM. Under `[2H]C([2H])([2H])NC(=O)c1nnc(NC(=O)C2CC2)cc1Nc1cccc(-c2noc(C(CC)C(=O)N3CCOCC3)n2)c1OC` (stereo not drawn) [Example 45] stands 160 nM; under `[2H]C([2H])([2H])NC(=O)c1nnc(NC(=O)C2CC2)cc1Nc1cccc(-c2nc(CN3CCN(C(=O)C4(C#N)CC4)CC3)no2)c1OC` [Example 133], 100 nM. As to `[2H]C([2H])([2H])NC(=O)c1nnc(NC(=O)C2CC2)cc1Nc1cccc(-c2ncc(C(=O)NCCC3CCCN3C)s2)c1OC` (stereo not drawn) [Example 299], the IC50 was determined as 14 nM. The figure for `[2H]C([2H])([2H])NC(=O)c1nnc(NC(=O)C2CC2)cc1Nc1cccc(-c2noc(C(=O)NC3CCC(N(C)C)CC3)n2)c1OC` (stereo not drawn) [Example 24] is 240 nM. Consider `[2H]C([2H])([2H])NC(=O)c1nnc(Nc2ccc(C)nn2)cc1Nc1cccc(-c2ccn(CCNC(=O)COC)n2)c1OC` [Example 542], for which the 50% inhibitory concentration (IC50) was found to be 890 nM. Under `[2H]C([2H])([2H])NC(=O)c1nnc(NC(=O)C2CC2)cc1Nc1cccc(-c2nc(C)c(C(=O)NC3CCC(N(C)C)CC3)s2)c1OC` (stereo not drawn) [Example 365] stands 320 nM; under `COc1c(Nc2cc(NC(=O)C3CC3)nnc2C(N)=O)cccc1-c1noc([C@H](C)N(C)S(C)(=O)=O)n1` [Example 51], 160 nM. For `COc1c(Nc2cc(NC(=O)C3CC3)nnc2C(N)=O)cccc1-c1ncc(C(=O)NCCC2CCCN2C)o1` (stereo not drawn) [Example 415], the concentration for half-maximal inhibition (IC50) is 40 nM. As to `[2H]C([2H])([2H])NC(=O)c1nnc(NC(=O)C2CC2)cc1Nc1cccc(-c2nc(CNC(=O)CN3CCN(C(=O)OC(C)(C)C)CC3)no2)c1OC` [Example 161], the 50% inhibitory concentration (IC50) is 9420 nM. As to `[2H]C([2H])([2H])NC(=O)c1nnc(NC(=O)C2CC2)cc1Nc1cccc(-c2noc(C(=O)NCCOC)n2)c1OC` [Example 19], the IC50 is 250 nM.

Turning to `COc1c(Nc2cc(NC3CC3)nnc2C(N)=O)cccc1-c1noc(CNS(C)(=O)=O)n1` [Example 118], the 50% inhibitory concentration (IC50) is 3800 nM. The figure for `[2H]C([2H])([2H])NC(=O)c1nnc(NC(=O)C2CC2)cc1Nc1cccc(-c2ncc(CNS(C)(=O)=O)s2)c1OC` [Example 265] is 530 nM.

In the case of `COc1c(Nc2cc(NC(=O)C3CC3)nnc2C(N)=O)cccc1-c1noc(CN2CCCS2(=O)=O)n1` [Example 68], the IC50 was 23 nM.

On to `COc1c(Nc2cc(NC(=O)C3CC3)nnc2C(N)=O)cccc1-c1ncc(C(=O)N2CCOCC2)o1` [Example 414], for which the IC50 turned out to be 310 nM.

As for `[2H]C([2H])([2H])NC(=O)c1nnc(NC(=O)C2CC2)cc1Nc1cccc(-c2ncc(C(=O)NC3CCC(N(CC)CC)CC3)s2)c1OC` (stereo not drawn) [Example 319], the IC50 is 30 nM. The figure for `[2H]C([2H])([2H])NC(=O)c1nnc(NC(=O)C2CC2)cc1Nc1cccc(-c2nc(CN3CC4CN(C(=O)OC(C)(C)C)CC4C3)no2)c1OC` (stereo not drawn) [Example 231] is 1750 nM; for `[2H]C([2H])([2H])NC(=O)c1nnc(NC(=O)C2CC2)cc1Nc1cccc(-c2cnn(CCNC(=O)CC#N)n2)c1OC` [Example 435] it is 260 nM. As for `[2H]C([2H])([2H])NC(=O)c1nnc(NC(=O)C2CC2)cc1Nc1cccc(-c2nc(CO)no2)c1OC` [Example 174], the half-inhibitory concentration (IC50) is 560 nM. The figure for `COc1c(Nc2cc(NC(=O)C3CC3)nnc2C(N)=O)cccc1-c1ncc(C(=O)N2CCC(O)CC2)o1` [Example 419] is 200 nM; for `COc1c(Nc2cc(NC(=O)C3CC3)nnc2C(N)=O)cccc1-c1noc(CN(C)S(=O)(=O)C2CC2)n1` [Example 9] it is 16 nM. Under `[2H]C([2H])([2H])NC(=O)c1nnc(Nc2cc(C)n(C)n2)cc1Nc1cc(F)cc(-c2cc(C(=O)NS(C)(=O)=O)n(C)n2)c1OC` [Example 552] stands 3600 nM; under `[2H]C([2H])([2H])NC(=O)c1cnc(NC(=O)C2CC2)cc1Nc1cccc(-c2nc(C3(NC(=O)OC(C)(C)C)CC3)no2)c1OC` [Example 213], 4440 nM; under `COc1c(Nc2cc(NC(=O)C3CC3)nnc2C(N)=O)cccc1-c1ncc(C(=O)N2CCC(CCO)CC2)s1` [Example 400], 30 nM. Under `[2H]C([2H])([2H])NC(=O)c1nnc(NC(=O)C2CC2)cc1Nc1cccc(-c2ccn(CCNS(C)(=O)=O)n2)c1OC` [Example 466] stands 420 nM; under `[2H]C([2H])([2H])NC(=O)c1nnc(NC(=O)C2CC2)cc1Nc1cc(F)cc(-c2cc(C(=O)N3CCCN(C)CC3)n(C)n2)c1OC` [Example 517], 350 nM. For `[2H]C([2H])([2H])NC(=O)c1nnc(Nc2ccc(C)nn2)cc1Nc1cccc(-c2ncc(C(=O)N(C)C)s2)c1OC` [Example 384], the IC50 is 40 nM. The figure for `[2H]C([2H])([2H])NC(=O)c1cnc(Nc2cnn(C)n2)cc1Nc1cc(F)cc(-c2cc(C(=O)N(C)C)n(C)n2)c1OC` [Example 553] is 120 nM; for `[2H]C([2H])([2H])NC(=O)c1nnc(NC(=O)C2CC2)cc1Nc1cccc(-c2ncc(C(=O)N3CCC(N4CCN(CCO)CC4)CC3)s2)c1OC` [Example 342] it is 80 nM. The figure for `COc1c(Nc2cc(NC(=O)C3CC3)nnc2C(N)=O)cccc1-c1ncc(C(=O)N2CCC(CCO)CC2)o1` [Example 416] is 460 nM; for `[2H]C([2H])([2H])NC(=O)c1nnc(NC(=O)C2CC2)cc1Nc1cccc(-c2ncc(C(=O)NCCCN(CC)CC)s2)c1OC` [Example 335] it is 50 nM. On to `[2H]C([2H])([2H])NC(=O)c1nnc(NC(=O)C2CC2)cc1Nc1cccc(-c2nc(CN3CCC(C)CC3)no2)c1OC` [Example 211], for which the IC50 was found to be 440 nM. As to `[2H]C([2H])([2H])NC(=O)c1nnc(NC(=O)C2CC2)cc1Nc1cccc(-c2ncc(C(=O)NCC(C)CN(C)C)s2)c1OC` (stereo not drawn) [Example 352], the concentration for half-maximal inhibition (IC50) amounted to 70 nM. The figure for `[2H]C([2H])([2H])NC(=O)c1nnc(NC(=O)C2CC2)cc1Nc1cccc(-c2cnn(CC(=O)NCC)n2)c1OC` [Example 427] is 90 nM; for `[2H]C([2H])([2H])NC(=O)c1cnc(NC(=O)C2CC2)cc1Nc1cccc(-c2noc(CN3CCN(C(=O)OC)CC3)n2)c1OC` [Example 92] it is 30 nM.

For `[2H]C([2H])([2H])NC(=O)c1nnc(Nc2ccc(OC)nn2)cc1Nc1cccc(-c2cnn(C)n2)c1OC` [Example 451, 4-((2-methoxy-3-(2-methyl-2H-1,2,3-triazol-4-yl)phenyl)amino)-6-((6-methoxypyridazin-3-yl)amino)-N-(methyl-d3)pyridazine-3-carboxamide], the half-inhibitory concentration (IC50) is 60 nM.

Take `[2H]C([2H])([2H])NC(=O)c1nnc(NC(=O)C2CC2)cc1Nc1cccc(-c2noc(COC)n2)c1OC` [Example 72]: the IC50 worked out at 80 nM. On to `CCS(=O)(=O)N(C)Cc1nc(-c2cccc(Nc3cc(NC(=O)C4CC4)nnc3C(N)=O)c2OC)no1` [Example 57], for which the IC50 stood at 9 nM. The figure for `[2H]C([2H])([2H])NC(=O)c1nnc(NC(=O)C2CC2)cc1Nc1cccc(-c2nc(CN3C[C@@H](C)O[C@@H](C)C3)no2)c1OC` [Example 158] is 400 nM. Under `[2H]C([2H])([2H])NC(=O)c1cnc(NC(=O)C2CC2)cc1Nc1cccc(-c2cc(C(=O)N(C)C)n(C)n2)c1OC` [Example 486] stands 60 nM; under `[2H]C([2H])([2H])NC(=O)c1nnc(NC(=O)C2CC2)cc1Nc1cccc(-c2cc(C(=O)N3CCN(C)CC3)n(C)n2)c1OC` [Example 480], 70 nM; under `[2H]C([2H])([2H])NC(=O)c1nnc(NC(=O)C2CC2)cc1Nc1cccc(-c2noc(CN3CCCC3=O)n2)c1OC` [Example 79], 160 nM. Under `[2H]C([2H])([2H])NC(=O)c1nnc(NC(=O)C2CC2)cc1Nc1cccc(-c2ncc(C(=O)N3CCNC(=O)C3C)s2)c1OC` (stereo not drawn) [Example 336] stands 260 nM; under `[2H]C([2H])([2H])NC(=O)c1nnc(Nc2ccc(OC)nn2)cc1Nc1cccc(-c2csc(C(=O)NCCOC)n2)c1OC` [Example 565], 250 nM. Regarding `[2H]C([2H])([2H])NC(=O)c1nnc(NC(=O)C2CC2)cc1Nc1cc(F)cc(-c2cc(C(=O)N3CCOCC3)n(C)n2)c1OC` [Example 485], the IC50 worked out at 130 nM.
